In patent publication US12227500B2, “Substituted pyrrolo[2,3-b]pyridines for suppressing toxic endoplasmic reticulum stress” (THE TRUSTEES OF COLUMBIA UNIVERSITY IN THE CITY OF NEW YORK, priority 2018, dated 2025):

Assays:
Assay in all cases: Radiolabeled ATP kinase assay, panel of 371 kinases (Table S6)
Type in all cases: biochemical
[1] = target: T1, panel of 371 human kinases (Homo sapiens, UniProt Q9UQM7); settings: CAMK2a; 0.1 μM; 10 μM ATP; read-out: % Enzyme Activity (relative to DMSO controls)
T1 construct: purchased Reaction Biology Corp
From the text: (§1) ; FIG. 38C). […]. Further targeted analyses, such as genetic knock-down or knock-out, may be warranted to parse the role of these additional kinases in our model of neurodegeneration.

[2] = target: T2, panel of 371 human kinases (Homo sapiens, UniProt O75385); settings: ULK1; 0.1 μM; 10 μM ATP; read-out: % Enzyme Activity (relative to DMSO controls)
T2 construct: purchased Reaction Biology Corp
From the text: as §1

[3] = target: T3, panel of 371 human kinases (Homo sapiens, UniProt P51813); settings: BMX/ETK; 0.1 μM; 10 μM ATP; read-out: % Enzyme Activity (relative to DMSO controls)
T3 construct: purchased Reaction Biology Corp
From the text: as §1

[4] = target: T4, panel of 371 human kinases (Homo sapiens, UniProt P51957); settings: NEK4; 0.1 μM; 10 μM ATP; read-out: % Enzyme Activity (relative to DMSO controls)
T4 construct: purchased Reaction Biology Corp
From the text: as §1

[5] = target: T5, panel of 371 human kinases (Homo sapiens, UniProt Q15375); settings: EPHA7; 0.1 μM; 10 μM ATP; read-out: % Enzyme Activity (relative to DMSO controls)
T5 construct: purchased Reaction Biology Corp
From the text: as §1

[6] = target: T6, panel of 371 human kinases (Homo sapiens, UniProt O00506); settings: STK25/YSK1; 0.1 μM; 10 μM ATP; read-out: % Enzyme Activity (relative to DMSO controls)
T6 construct: purchased Reaction Biology Corp
From the text: as §1

[7] = target: T7, panel of 371 human kinases (Homo sapiens, UniProt Q9UL54); settings: TAOK2/TAO1; 0.1 μM; 10 μM ATP; read-out: % Enzyme Activity (relative to DMSO controls)
T7 construct: purchased Reaction Biology Corp
From the text: as §1

[8] = target: T8, panel of 371 human kinases (Homo sapiens, UniProt Q96SB4); settings: SRPK1; 0.1 μM; 10 μM ATP; read-out: % Enzyme Activity (relative to DMSO controls)
T8 construct: purchased Reaction Biology Corp
From the text: as §1

[9] = target: T9, panel of 371 human kinases (Homo sapiens, UniProt P53355); settings: DAPK1; 0.1 μM; 10 μM ATP; read-out: % Enzyme Activity (relative to DMSO controls)
T9 construct: purchased Reaction Biology Corp
From the text: as §1

[10] = target: T10, panel of 371 human kinases (Homo sapiens, UniProt Q15759); settings: P38b/MAPK11; 0.1 μM; 10 μM ATP; read-out: % Enzyme Activity (relative to DMSO controls)
T10 construct: purchased Reaction Biology Corp
From the text: as §1

[11] = target: T11, panel of 371 human kinases (Homo sapiens, UniProt P53671); settings: LIMK2; 0.1 μM; 10 μM ATP; read-out: % Enzyme Activity (relative to DMSO controls)
T11 construct: purchased Reaction Biology Corp
From the text: as §1

[12] = target: T12, panel of 371 human kinases (Homo sapiens, UniProt O00238); settings: ALK6/BMPR1B; 0.1 μM; 10 μM ATP; read-out: % Enzyme Activity (relative to DMSO controls)
T12 construct: purchased Reaction Biology Corp
From the text: as §1

[13] = target: T13, panel of 371 human kinases (Homo sapiens, UniProt Q9Y572); settings: RIPK3; 0.1 μM; 10 μM ATP; read-out: % Enzyme Activity (relative to DMSO controls)
T13 construct: purchased Reaction Biology Corp
From the text: as §1

[14] = target: T14, panel of 371 human kinases (Homo sapiens, UniProt P45984); settings: JNK2; 0.1 μM; 10 μM ATP; read-out: % Enzyme Activity (relative to DMSO controls)
T14 construct: purchased Reaction Biology Corp
From the text: as §1

[15] = target: T15, panel of 371 human kinases (Homo sapiens, UniProt Q8N5S9); settings: CAMKK1; 0.1 μM; 10 μM ATP; read-out: % Enzyme Activity (relative to DMSO controls)
T15 construct: purchased Reaction Biology Corp
From the text: as §1

[16] = target: T16, panel of 371 human kinases (Homo sapiens, UniProt Q9NRM7); settings: LATS2; 0.1 μM; 10 μM ATP; read-out: % Enzyme Activity (relative to DMSO controls)
T16 construct: purchased Reaction Biology Corp
From the text: as §1

[17] = target: T17, panel of 371 human kinases (Homo sapiens, UniProt P29322); settings: EPHA8; 0.1 μM; 10 μM ATP; read-out: % Enzyme Activity (relative to DMSO controls)
T17 construct: purchased Reaction Biology Corp
From the text: as §1

[18] = target: T18, panel of 371 human kinases (Homo sapiens, UniProt Q8TF76); settings: Haspin; 0.1 μM; 10 μM ATP; read-out: % Enzyme Activity (relative to DMSO controls)
T18 construct: purchased Reaction Biology Corp
From the text: as §1

[19] = target: T19, panel of 371 human kinases (Homo sapiens, UniProt Q13188); settings: MST2/STK3; 0.1 μM; 10 μM ATP; read-out: % Enzyme Activity (relative to DMSO controls)
T19 construct: purchased Reaction Biology Corp
From the text: as §1

[20] = target: T20, panel of 371 human kinases (Homo sapiens, UniProt P52564); settings: MKK6; 0.1 μM; 10 μM ATP; read-out: % Enzyme Activity (relative to DMSO controls)
T20 construct: purchased Reaction Biology Corp
From the text: as §1

[21] = target: T21, panel of 371 human kinases (Homo sapiens, UniProt P36507); settings: MEK2; 0.1 μM; 10 μM ATP; read-out: % Enzyme Activity (relative to DMSO controls)
T21 construct: purchased Reaction Biology Corp
From the text: as §1

[22] = target: T22, panel of 371 human kinases (Homo sapiens, UniProt P09619); settings: PDGFRb; 0.1 μM; 10 μM ATP; read-out: % Enzyme Activity (relative to DMSO controls)
T22 construct: purchased Reaction Biology Corp
From the text: as §1

[23] = target: T23, panel of 371 human kinases (Homo sapiens, UniProt Q15569); settings: TESK1; 0.1 μM; 10 μM ATP; read-out: % Enzyme Activity (relative to DMSO controls)
T23 construct: purchased Reaction Biology Corp
From the text: as §1

[24] = target: T24, panel of 371 human kinases (Homo sapiens, UniProt Q13554); settings: CAMK2b; 0.1 μM; 10 μM ATP; read-out: % Enzyme Activity (relative to DMSO controls)
T24 construct: purchased Reaction Biology Corp
From the text: as §1

T22 sequence (P09619 33-1106): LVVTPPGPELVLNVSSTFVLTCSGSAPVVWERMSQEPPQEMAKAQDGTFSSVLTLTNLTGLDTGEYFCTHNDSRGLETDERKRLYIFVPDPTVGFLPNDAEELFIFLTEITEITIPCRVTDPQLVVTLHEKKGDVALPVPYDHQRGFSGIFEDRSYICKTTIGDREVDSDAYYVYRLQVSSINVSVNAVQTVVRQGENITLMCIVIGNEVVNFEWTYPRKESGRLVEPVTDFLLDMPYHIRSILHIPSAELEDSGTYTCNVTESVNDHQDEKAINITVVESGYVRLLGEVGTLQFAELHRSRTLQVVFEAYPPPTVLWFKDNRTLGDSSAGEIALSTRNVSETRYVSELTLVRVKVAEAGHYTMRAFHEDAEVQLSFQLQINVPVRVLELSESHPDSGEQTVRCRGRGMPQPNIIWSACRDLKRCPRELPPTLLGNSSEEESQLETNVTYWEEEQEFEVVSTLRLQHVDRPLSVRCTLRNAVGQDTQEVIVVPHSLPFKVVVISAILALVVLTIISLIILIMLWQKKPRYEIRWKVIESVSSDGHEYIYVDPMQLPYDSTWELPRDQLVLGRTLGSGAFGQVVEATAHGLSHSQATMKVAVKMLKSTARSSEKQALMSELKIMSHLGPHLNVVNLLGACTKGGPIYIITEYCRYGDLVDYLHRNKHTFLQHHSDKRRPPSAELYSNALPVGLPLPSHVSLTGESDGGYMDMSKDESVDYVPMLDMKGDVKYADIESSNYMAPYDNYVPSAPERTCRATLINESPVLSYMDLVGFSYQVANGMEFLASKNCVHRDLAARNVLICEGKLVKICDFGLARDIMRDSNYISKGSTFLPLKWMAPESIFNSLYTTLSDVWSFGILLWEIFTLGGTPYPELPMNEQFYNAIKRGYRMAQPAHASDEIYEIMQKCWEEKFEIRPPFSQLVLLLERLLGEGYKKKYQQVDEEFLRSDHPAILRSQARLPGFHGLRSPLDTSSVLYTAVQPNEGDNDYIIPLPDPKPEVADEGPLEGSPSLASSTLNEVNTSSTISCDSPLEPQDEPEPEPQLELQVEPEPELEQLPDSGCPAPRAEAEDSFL
T1 sequence (Q9UQM7 whole entry): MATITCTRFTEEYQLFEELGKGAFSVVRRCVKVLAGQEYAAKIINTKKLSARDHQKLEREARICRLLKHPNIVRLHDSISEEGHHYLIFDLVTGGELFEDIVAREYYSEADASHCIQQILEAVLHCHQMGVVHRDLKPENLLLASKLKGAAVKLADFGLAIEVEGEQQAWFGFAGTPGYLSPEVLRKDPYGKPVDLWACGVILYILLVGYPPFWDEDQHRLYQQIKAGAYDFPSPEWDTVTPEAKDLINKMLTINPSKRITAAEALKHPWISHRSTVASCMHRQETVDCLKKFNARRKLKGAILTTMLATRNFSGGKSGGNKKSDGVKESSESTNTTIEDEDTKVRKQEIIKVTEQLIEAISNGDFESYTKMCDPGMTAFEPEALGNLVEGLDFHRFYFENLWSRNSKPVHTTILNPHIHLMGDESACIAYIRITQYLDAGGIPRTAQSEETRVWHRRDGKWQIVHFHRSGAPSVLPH
T23 sequence (Q15569 whole entry): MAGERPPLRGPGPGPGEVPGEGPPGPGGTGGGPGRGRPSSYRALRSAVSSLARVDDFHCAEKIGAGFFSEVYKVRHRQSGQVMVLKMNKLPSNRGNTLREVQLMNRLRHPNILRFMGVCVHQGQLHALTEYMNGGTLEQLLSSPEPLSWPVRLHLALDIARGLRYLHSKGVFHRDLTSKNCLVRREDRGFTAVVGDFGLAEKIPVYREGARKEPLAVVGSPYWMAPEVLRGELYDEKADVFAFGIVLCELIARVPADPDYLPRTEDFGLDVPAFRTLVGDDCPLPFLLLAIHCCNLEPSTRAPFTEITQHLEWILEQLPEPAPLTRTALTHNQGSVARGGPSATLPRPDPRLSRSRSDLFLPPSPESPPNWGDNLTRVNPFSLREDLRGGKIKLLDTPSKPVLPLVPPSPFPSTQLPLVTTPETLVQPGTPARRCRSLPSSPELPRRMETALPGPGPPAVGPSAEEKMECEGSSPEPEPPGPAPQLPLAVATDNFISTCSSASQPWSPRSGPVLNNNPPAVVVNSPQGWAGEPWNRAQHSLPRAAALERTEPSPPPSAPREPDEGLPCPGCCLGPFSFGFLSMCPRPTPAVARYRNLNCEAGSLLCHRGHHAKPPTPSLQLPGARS
T18 sequence (Q8TF76 whole entry): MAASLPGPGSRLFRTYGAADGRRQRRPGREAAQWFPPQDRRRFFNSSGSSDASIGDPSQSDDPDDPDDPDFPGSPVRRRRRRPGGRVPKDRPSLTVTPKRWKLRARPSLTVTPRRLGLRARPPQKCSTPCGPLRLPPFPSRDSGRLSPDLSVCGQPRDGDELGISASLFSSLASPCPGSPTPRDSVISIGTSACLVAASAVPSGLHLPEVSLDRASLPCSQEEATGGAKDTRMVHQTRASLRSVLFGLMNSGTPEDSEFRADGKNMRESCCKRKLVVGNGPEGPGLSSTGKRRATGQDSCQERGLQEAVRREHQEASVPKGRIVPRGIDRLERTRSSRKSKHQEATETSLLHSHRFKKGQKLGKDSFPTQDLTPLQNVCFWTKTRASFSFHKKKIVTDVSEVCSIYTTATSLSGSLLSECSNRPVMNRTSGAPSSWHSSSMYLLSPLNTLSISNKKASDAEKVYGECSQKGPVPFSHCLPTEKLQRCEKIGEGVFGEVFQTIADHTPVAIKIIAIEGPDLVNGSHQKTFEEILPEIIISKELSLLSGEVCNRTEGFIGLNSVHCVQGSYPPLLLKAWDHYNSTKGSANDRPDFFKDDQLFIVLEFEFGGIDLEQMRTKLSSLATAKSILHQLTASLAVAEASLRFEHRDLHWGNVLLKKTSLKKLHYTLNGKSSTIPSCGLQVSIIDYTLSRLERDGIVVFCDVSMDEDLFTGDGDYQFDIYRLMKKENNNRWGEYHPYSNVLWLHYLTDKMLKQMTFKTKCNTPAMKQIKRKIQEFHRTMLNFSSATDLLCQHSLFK
T12 sequence (O00238 14-502): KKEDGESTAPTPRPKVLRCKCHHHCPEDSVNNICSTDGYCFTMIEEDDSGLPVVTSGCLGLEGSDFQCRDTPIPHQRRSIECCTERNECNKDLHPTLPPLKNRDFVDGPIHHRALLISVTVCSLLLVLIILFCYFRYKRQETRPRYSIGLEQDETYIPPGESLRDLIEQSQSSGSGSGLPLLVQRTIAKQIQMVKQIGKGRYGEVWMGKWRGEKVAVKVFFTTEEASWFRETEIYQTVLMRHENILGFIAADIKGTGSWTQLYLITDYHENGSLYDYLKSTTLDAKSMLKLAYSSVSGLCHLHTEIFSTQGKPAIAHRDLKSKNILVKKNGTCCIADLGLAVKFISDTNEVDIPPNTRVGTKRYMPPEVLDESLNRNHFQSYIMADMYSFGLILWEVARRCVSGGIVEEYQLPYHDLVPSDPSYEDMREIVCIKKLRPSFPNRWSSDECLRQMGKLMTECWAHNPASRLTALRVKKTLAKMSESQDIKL
T8 sequence (Q96SB4 whole entry): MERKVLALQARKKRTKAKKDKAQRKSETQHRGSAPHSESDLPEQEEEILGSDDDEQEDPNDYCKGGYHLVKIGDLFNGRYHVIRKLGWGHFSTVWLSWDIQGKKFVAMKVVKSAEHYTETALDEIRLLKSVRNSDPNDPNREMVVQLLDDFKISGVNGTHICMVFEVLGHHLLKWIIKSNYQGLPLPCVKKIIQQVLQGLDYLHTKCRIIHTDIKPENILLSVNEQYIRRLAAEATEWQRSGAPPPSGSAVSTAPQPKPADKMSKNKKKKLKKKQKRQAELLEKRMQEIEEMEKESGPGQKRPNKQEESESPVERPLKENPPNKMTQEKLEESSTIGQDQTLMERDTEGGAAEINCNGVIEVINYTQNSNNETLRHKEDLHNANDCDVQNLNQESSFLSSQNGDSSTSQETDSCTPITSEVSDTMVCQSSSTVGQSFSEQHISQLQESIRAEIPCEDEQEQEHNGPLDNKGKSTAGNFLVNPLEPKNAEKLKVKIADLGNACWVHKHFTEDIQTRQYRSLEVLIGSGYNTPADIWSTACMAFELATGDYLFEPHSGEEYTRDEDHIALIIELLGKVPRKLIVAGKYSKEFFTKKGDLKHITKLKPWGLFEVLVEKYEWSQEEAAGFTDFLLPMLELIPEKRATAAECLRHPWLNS
T15 sequence (Q8N5S9 whole entry): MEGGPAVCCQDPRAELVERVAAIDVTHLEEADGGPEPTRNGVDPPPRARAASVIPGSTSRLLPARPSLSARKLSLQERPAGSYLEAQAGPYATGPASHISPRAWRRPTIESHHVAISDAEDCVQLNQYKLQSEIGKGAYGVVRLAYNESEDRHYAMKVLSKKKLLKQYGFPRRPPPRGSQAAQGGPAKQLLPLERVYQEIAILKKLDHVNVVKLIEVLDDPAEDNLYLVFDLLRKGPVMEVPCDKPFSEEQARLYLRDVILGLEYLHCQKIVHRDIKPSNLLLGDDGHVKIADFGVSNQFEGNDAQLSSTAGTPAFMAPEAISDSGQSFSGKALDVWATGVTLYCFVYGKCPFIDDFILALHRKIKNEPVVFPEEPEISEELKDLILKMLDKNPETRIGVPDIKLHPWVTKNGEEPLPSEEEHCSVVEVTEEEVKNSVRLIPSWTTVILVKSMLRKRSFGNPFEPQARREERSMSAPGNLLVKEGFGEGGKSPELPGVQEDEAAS
T21 sequence (P36507 whole entry): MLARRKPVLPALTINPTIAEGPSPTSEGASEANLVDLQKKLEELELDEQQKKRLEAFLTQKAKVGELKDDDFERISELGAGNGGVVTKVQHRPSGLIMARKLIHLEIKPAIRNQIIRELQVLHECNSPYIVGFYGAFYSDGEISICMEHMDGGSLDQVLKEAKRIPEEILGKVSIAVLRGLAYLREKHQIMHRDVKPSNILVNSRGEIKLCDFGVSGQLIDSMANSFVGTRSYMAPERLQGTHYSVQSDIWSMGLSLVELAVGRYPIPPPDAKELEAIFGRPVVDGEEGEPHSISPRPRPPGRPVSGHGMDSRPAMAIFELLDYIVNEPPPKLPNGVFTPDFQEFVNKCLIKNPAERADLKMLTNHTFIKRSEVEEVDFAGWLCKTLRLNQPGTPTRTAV

Row | Structure (SMILES) | remaining activity at 0.1 µM [1] [%] | remaining activity at 0.1 µM [2] [%] | remaining activity at 0.1 µM [3] [%] | remaining activity at 0.1 µM [4] [%] | remaining activity at 0.1 µM [5] [%] | remaining activity at 0.1 µM [6] [%] | remaining activity at 0.1 µM [7] [%] | remaining activity at 0.1 µM [8] [%] | remaining activity at 0.1 µM [9] [%] | remaining activity at 0.1 µM [10] [%] | remaining activity at 0.1 µM [11] [%] | remaining activity at 0.1 µM [12] [%] | remaining activity at 0.1 µM [13] [%] | remaining activity at 0.1 µM [14] [%] | remaining activity at 0.1 µM [15] [%] | remaining activity at 0.1 µM [16] [%] | remaining activity at 0.1 µM [17] [%] | remaining activity at 0.1 µM [18] [%] | remaining activity at 0.1 µM [19] [%] | remaining activity at 0.1 µM [20] [%] | further results
1 | CN1CCN(Cc2ccc(-c3cnc4[nH]cc(-c5ccc6[nH]ccc6c5)c4c3)cc2)CC1 [Compound 1, 3-(1H-Indol-5-yl)-5-(4-((4-methylpiperazin-1-yl)methyl)phenyl)-1H-pyrrolo[2,3-b]pyridine, reference compound] | 101 | 89.7 | 101 | 89.8 | 89.5 | 102 | 104 | 104 | 96.3 | 87.4 | 103 | 116 | 100 | 99.4 | 103 | 83.2 | 90.8 | 128 | 102 | 116 | remaining activity at 0.1 µM [21]: 86.7%; remaining activity at 0.1 µM [22]: 94.2%; remaining activity at 0.1 µM [23]: 105%; remaining activity at 0.1 µM [24]: 95.5%
2 | OCCN1CCN(Cc2ccc(-c3cnc4[nH]cc(-c5cccc(Cl)c5)c4c3)cc2)CC1 [Compound 12k, 2-(4-(4-(3-(3-Chlorophenyl)-1H-pyrrolo[2,3-b]pyridin-5-yl)benzyl)piperazin-1-yl)ethan-1-ol] | 110 | 88.8 | 103 | 87.4 | 91.3 | 72.4 | 103 | 100 | 95.4 | 94.2 | 101 | 125 | 99.4 | 97 | 102 | 88.1 | 93.5 | 75 | 86 | 97.9 | remaining activity at 0.1 µM [21]: 93.1%; remaining activity at 0.1 µM [22]: 96.3%; remaining activity at 0.1 µM [23]: 101%; remaining activity at 0.1 µM [24]: 92.2%
